PMC9241686 (Microbiology Spectrum, 2022)
Like-named read-outs stand apart in the source and are kept apart here.

Legend:
HepG2 cells [1] = system: HepG2 cells; parameters: method as in PMID 35046812; settings: standard culture medium; primary screen hits; cited from earlier work
macrophages (RAW 264.7) [2] = system: macrophages (RAW 264.7); parameters: method as in PMID 35046812; settings: RAW 264.7 infected macrophages, high-content assay; primary screen hits; read-out: Macrophage IC50; cited from earlier work
[3] = system: intracellular M. tuberculosis; parameters: method as in PMID 35046812; settings: M. tuberculosis in RAW 264.7, high-content assay; primary screen hits; read-out: Intracellular TB IC50; cited from earlier work
[4] = system: extracellular M. tuberculosis; parameters: method as in PMID 35046812; settings: standard culture medium; primary screen hits; read-out: Extracellular TB IC50; cited from earlier work
HepG2 cells [5] = test: cells; assay type: cell-based, human; settings: 72 h, CellTiter-Glo; for IC50: Homo sapiens, HepG2
[6] = system: extracellular M. tuberculosis; test: microbe, parasite or virus in culture; assay type: cell-based; settings: Mycobacterium tuberculosis
macrophages (RAW 264.7) [7] = test: cells; assay type: cell-based, murine; settings: RAW 264.7 infected macrophages, high-content assay, 72 h; for IC50: Mus musculus, RAW264.7, read-out: Macrophage IC50
[8] = system: intracellular M. tuberculosis; test: microbe, parasite or virus in culture; assay type: cell-based, Mycobacterium tuberculosis; settings: for IC50 / Intracellular TB IC50: M. tuberculosis in RAW 264.7, high-content assay, 72 h; for IC50: read-out: Intracellular TB IC50; for selectivity index (SI): cytotoxicity IC50 over intracellular M. tuberculosis IC50; for fold difference between extracellular and intracellular IC50: extracellular versus intracellular M. tuberculosis
[9] = system: replicating M. tuberculosis; test: Kill kinetics against replicating M. tuberculosis; assay type: cell-based, Mycobacterium tuberculosis; settings: up to 100 μM, over 21 days, aerobic culture in 7H9-Tw-OADC
[10] = system: extracellular M. tuberculosis; test: microbe, parasite or virus in culture; assay type: cell-based, Mycobacterium tuberculosis; settings: for IC50: Mycobacterium tuberculosis, 168 h, read-out: Cholesterol IC50; for Fold-change: glucose IC50 versus cholesterol IC50
[11] = 120 h, read-out: Extracellular TB IC50
[12] = Mycobacterium tuberculosis, RAW264.7, 72 h
[13] = glucose as carbon source, read-out: Glucose IC50

Row | Structure (SMILES) | IC50 (HepG2 cells [5]) | IC50 [6, 11] | IC50 (macrophages (RAW 264.7) [7]) | IC50 [8, 12] | also measured
1 | CCOc1ccc(NC(=S)Nc2ccccc2)cc1 [Compound 1] |  |  |  |  | IC50 (HepG2 cells [1]): > 100 µM; IC50 (macrophages (RAW 264.7) [2]): > 100 µM; IC50 [3]: 0.4 µM; IC50 [4]: > 20 µM
2 | CCOc1ccc(NC(=S)Nc2ccc(C)c(C#N)c2)cc1 [Compound 2] |  |  |  |  | IC50 (HepG2 cells [1]): 64 µM; IC50 (macrophages (RAW 264.7) [2]): 47 µM; IC50 [3]: 0.3 µM; IC50 [4]: 9.5 µM
3 | O=C(Nc1ccc(Cl)cc1)Nc1ccc(Nc2ccccc2)cc1 [Compound 3] |  |  |  |  | IC50 (HepG2 cells [1]): > 100 µM; IC50 (macrophages (RAW 264.7) [2]): 68 µM; IC50 [4]: > 20 µM
4 | O=C(Nc1ccc(C(F)(F)F)cc1)Nc1cccc(Cl)c1 [Compound 4] |  |  |  |  | IC50 (HepG2 cells [1]): 5.6 µM; IC50 (macrophages (RAW 264.7) [2]): 1.8 µM; IC50 [3]: 0.7 µM; IC50 [4]: 15 µM
5 | Cc1cc(C)nc(NC(=N)Nc2ccc(Br)cc2)n1 [Compound 5] |  |  |  |  | IC50 (HepG2 cells [1]): 22 µM; IC50 (macrophages (RAW 264.7) [2]): 18 µM; IC50 [3]: 1.3 µM; IC50 [4]: 8.2 µM
6 | Fc1cccc(NC(=S)Nc2ccccc2C(F)(F)F)c1 [Compound 7] | 86 µM | > 200 µM | 53 µM | > 100 µM | 
7 | CCOc1ccc(NC(=S)NC)cc1 [Compound 8] | > 100 µM | 80 µM | > 100 µM | < 20 µM | IC50 [8]: 10 µM
8 | S=C(Nc1ccccc1)NC1CCCCC1 [Compound 9] | > 100 µM | 130 µM | > 100 µM | > 100 µM | Intracellular TB IC50 [8]: loss of intracellular activity
9 | CNC(=S)Nc1ccccc1 [Compound 10] | > 100 µM | > 200 µM | > 100 µM | > 100 µM | 
10 | CCOc1ccc(NC(=S)Nc2ccccc2C(=O)OC)cc1 [Compound 11] | > 100 µM | > 200 µM | 46 µM |  | 
11 | COc1ccc(NC(=S)Nc2ccccc2C)cc1 [Compound 12] | > 100 µM | > 200 µM | > 100 µM | < 20 µM | IC50 [8]: 19 µM
12 | COc1ccc(NC(=S)Nc2ccc(C(N)=O)cc2)cc1 [Compound 13] | > 100 µM | > 200 µM | > 100 µM | > 100 µM | Intracellular TB IC50 [8]: inactive
13 | CCOc1ccc(NC(=S)Nc2ccc(OC)cc2)cc1 [Compound 14] | > 100 µM | 7.2 µM | > 100 µM |  | culture viability (CFU) in kill kinetics [9]: small decrease in viable bacteria at day 21 at the highest concentration; IC50 [6, 13]: 7.2 µM; IC50 [10]: 15 µM; Fold-change [10]: 0.5; selectivity index (SI) [8]: > 588; fold difference between extracellular and intracellular IC50 [8]: > 40 fold
14 | COc1ccc(NC(=S)Nc2ccccc2Cl)cc1 [Compound 15] | > 100 µM | > 200 µM | > 100 µM | < 20 µM | IC50 [8]: 14 µM
15 | CCOc1ccc2nc(NC(=S)Nc3ccccc3)sc2c1 [Compound 16] | 73 µM | 26 µM | 28 µM | < 1 µM | IC50 [6, 13]: 26 µM; IC50 [10]: 6.6 µM; Fold-change [10]: 3.9; IC50 [8]: 0.75 µM
16 | S=C(Nc1ccccc1)Nc1ccc(Cl)cc1 [Compound 17] | 91 µM | 104 µM | 42 µM | < 20 µM | IC50 [8]: 16 µM
17 | COc1ccc(NC(=S)Nc2ccccc2C(F)(F)F)cc1OC [Compound 18] | > 100 µM | > 200 µM | > 100 µM | > 100 µM | Intracellular TB IC50 [8]: inactive
18 | COc1ccc(NC(=S)Nc2ccc(F)cc2)cc1 [Compound 20] | > 100 µM | 91 µM | > 100 µM | 9.2 µM | 
19 | CCCc1nnc(NC(=S)Nc2ccccc2)s1 [Compound 21] | > 100 µM | 14.5 µM |  |  | selectivity index (SI) [8]: > 200

Row | Structure (SMILES) | IC50 (HepG2 cells [5]) | IC50 [6, 11] | IC50 (macrophages (RAW 264.7) [7]) | IC50 [8, 12] | also measured
20 | CC(C)(C)c1nnc(NC(=S)Nc2ccccc2)s1 [Compound 22] | > 99 µM | 11 µM | > 100 µM | < 1 µM | IC50 [6, 13]: 11 µM; IC50 [10]: 5.7 µM; Fold-change [10]: 1.9; IC50 [8]: 0.51 µM; selectivity index (SI) [8]: > 200; fold difference between extracellular and intracellular IC50 [8]: > 20 fold
21 | FC(F)(F)c1cccc(NC(=S)Nc2cccnc2)c1 [Compound 23] | 62 µM | 125 µM | 30 µM |  | Macrophage IC50 (macrophages (RAW 264.7) [7]): cytotoxicity to macrophages
22 | COc1ccc(NC(=S)Nc2ccc(Br)cc2)cc1 [Compound 24] | > 100 µM | 16 µM | 72 µM | 2.1 µM | fold increase in potency ([8]; intracellular IC50, bromine replacing fluorine): 5 fold
23 | COc1cccc(NC(=S)Nc2cccc(C(F)(F)F)c2)c1 [Compound 25] | 24 µM | 63 µM | 17 µM | 9.6 µM | 
24 | FC(F)(F)c1cccc(NC(=S)NCCc2ccc(Cl)cc2)c1 [Compound 26] | 23 µM | 30 µM | 9.3 µM |  | 
25 | O=C(NC(=S)Nc1ccc2oc(-c3ccccc3)nc2c1)c1ccccc1 [Compound 27] | > 100 µM | > 200 µM | 80 µM |  | selectivity index (SI) [8]: > 200; fold difference between extracellular and intracellular IC50 [8]: > 500 fold
26 | COc1ccc(C(F)(F)F)cc1NC(=O)Nc1cccc(Cl)c1 [Compound 28] | 12 µM | 25 µM | 3 µM |  | 
27 | COc1ccc2nc(NC(=O)Nc3ccc(Cl)cc3)sc2c1 [Compound 29] | > 100 µM | > 200 µM | 56 µM |  | 
28 | COc1ccc(NC(=O)Nc2nc3ccccc3s2)cc1 [Compound 30] | 54 µM | > 200 µM | 52 µM |  | 
29 | CNC(=O)Nc1ccc(Br)cc1 [Compound 31] | > 100 µM | > 200 µM | > 100 µM | 64 µM | 
30 | O=C(Nc1ccccc1)Nc1ccc(Cl)cc1 [Compound 33] | > 100 µM | > 200 µM | > 100 µM | > 100 µM | 
31 | CC(C)(C)c1nnc(NC(=O)Nc2ccc(Cl)cc2)s1 [Compound 34] | > 100 µM | > 200 µM | > 100 µM | 84 µM | Intracellular TB IC50 [8]: lost activity
32 | O=C(Nc1cccc(Cl)c1)NC1CCCCC1 [Compound 35] | > 100 µM | 28 µM | > 100 µM | 4.5 µM | HepG2 IC50 (HepG2 cells [5]): no cytotoxicity
33 | Cc1nnc(NC(=O)Nc2ccccc2)s1 [Compound 36] | > 100 µM | > 200 µM | > 100 µM | > 100 µM | 
34 | COc1cc(NC(=S)Nc2ccc(C(F)(F)F)cc2)cc(OC)c1 [Compound 37] | 49 µM | > 200 µM | 29 µM |  | 
35 | CC(C)c1ccc(NC(=O)Nc2ccccc2)cc1 [Compound 38] | 55 µM | > 200 µM | 85 µM | > 100 µM | 
36 | N#Cc1ccc(NC(=O)Nc2ccc(Cl)cc2)cc1 [Compound 39] | 6.5 µM | 11 µM | 3 µM |  | 
37 | COc1cccc(NC(=O)Nc2ccc(C(F)(F)F)cc2)c1 [Compound 40] | 11 µM | 31 µM | 5.2 µM |  | 
